Molecular target: T1, Pin1 (Homo sapiens, UniProt Q13526)
T1 construct: PTPI-PIN1 directs the synthesis of the native full length Pin1 protein; (His)6 (N); made in house; host or cells: E. coli BL21
Assay: PPIase assay: inhibition of Pin1 PPIase activity
Format: biochemical
Conditions: even at 25 μM
Experimental: PPIase activity of the purified recombinant proteins was assayed using the procedure of Heitman et al. (Methods, 5:176, 1993) with the following exceptions. The reaction was carried out 5° C. and chymotrypsin was added just before the peptide substrate (N-Succ-Ala-Pro-Phe-p-nitroanilide, Sigma). The cis to trans isomerization was monitored every 6 seconds by a change in the absorbance at 395 nm using DMS 2000 UV and Visible Spectrophotometer (Varian). FKBP, cyclosporin A and FK520, a FK506 derivative, were gifts of D. Schultz and C. Zuker; University of California, San Diego.
Because of the strong sequence in similarity between Pin1 and the third PPIase family, Pin was tested to determine if Pin could catalyze the cis/trans isomerization of peptidyl-prolyl peptide bonds in vitro, a characteristic of PPIase. Pin1 was expressed in bacteria with an N-terminal (His)6 tag and was purified from bacteria using a […] agarose column. […] The isomerase activity was measured as described in Example 1. The cis to trans isomerization was monitored every 6 seconds by a change in the absorbance at 395 nm, with the finally stable absorbance of each sample being set at 1.0. Different concentrations of Pin1 were used as indicated, with the recombinant FK506-binding protein (FKBP) PPIase being used as a positive control. The control sample contained all the ingredients except the PPIase. […]

T1 sequence (Q13526 whole entry): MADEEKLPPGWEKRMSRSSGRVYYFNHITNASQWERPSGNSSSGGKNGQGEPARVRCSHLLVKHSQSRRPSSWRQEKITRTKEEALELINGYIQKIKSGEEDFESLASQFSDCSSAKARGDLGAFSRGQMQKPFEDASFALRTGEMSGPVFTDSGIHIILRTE

In the case of `CC[C@@H]1/C=C(\C)C[C@H](C)C[C@H](OC)[C@H]2O[C@@](O)(C(=O)C(=O)N3CCCC[C@H]3C(=O)O[C@H](/C(C)=C/[C@@H]3CC[C@@H](O)[C@H](OC)C3)[C@H](C)[C@@H](O)CC1=O)[C@H](C)C[C@@H]2OC` [FK520], the “inhibition of the PPIase activity of Pin1” value is reported as “not inhibited”.

— US7125955B2, “NIMA interacting proteins” (The Salk Institute for Biological Studies, priority 1995, dated 2006)
